Measurements from ChEMBL document CHEMBL1139487, “Discovery of corticotropin releasing factor 2 receptor selective sauvagine analogues for treatment of skeletal muscle atrophy” (J Med Chem, 2005).

Columns and labels:
[1] = molecular target: Corticotropin-releasing factor receptor 2 (Mus musculus, UniProt Q60748); assay: In vitro effective concentration for mouse corticotropin releasing factor 2 receptor
[2] = molecular target: T1, Corticotropin-releasing factor receptor 1 (Mus musculus, UniProt P35347); assay: In vitro effective concentration for mouse corticotropin releasing factor 1 receptor
T1 sequence (P35347 whole entry): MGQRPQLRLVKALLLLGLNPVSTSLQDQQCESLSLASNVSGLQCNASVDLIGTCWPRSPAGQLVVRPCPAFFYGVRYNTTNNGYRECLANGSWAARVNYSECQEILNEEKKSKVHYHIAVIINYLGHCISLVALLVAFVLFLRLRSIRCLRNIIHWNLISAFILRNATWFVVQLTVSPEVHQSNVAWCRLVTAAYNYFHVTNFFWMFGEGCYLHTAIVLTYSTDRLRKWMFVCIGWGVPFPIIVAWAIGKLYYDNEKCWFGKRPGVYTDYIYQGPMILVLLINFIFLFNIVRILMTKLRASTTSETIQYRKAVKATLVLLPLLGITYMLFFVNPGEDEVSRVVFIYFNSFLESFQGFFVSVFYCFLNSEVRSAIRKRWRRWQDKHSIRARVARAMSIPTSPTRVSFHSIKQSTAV

[3] = molecular target: T2, Corticotropin-releasing factor receptor 1 (Mus musculus) (UniProt P35347); assay: In vitro agonistic activity against mouse corticotropin releasing factor 1 receptor; type: functional
T2 sequence (whole entry): T1 sequence (P35347 whole entry)

Mus musculus = species on record: Mus musculus; assay: Selectivity ratio of EC50s for mouse corticotropin releasing factor receptors 1 and 2
[4] = molecular target: Corticotropin-releasing factor receptor 2 (Mus musculus) (UniProt Q60748); assay: In vitro agonistic activity against mouse corticotropin releasing factor 2 receptor; type: functional
Corticotropin-releasing factor receptor 2 (Mus musculus), sequence (Q60748 whole entry): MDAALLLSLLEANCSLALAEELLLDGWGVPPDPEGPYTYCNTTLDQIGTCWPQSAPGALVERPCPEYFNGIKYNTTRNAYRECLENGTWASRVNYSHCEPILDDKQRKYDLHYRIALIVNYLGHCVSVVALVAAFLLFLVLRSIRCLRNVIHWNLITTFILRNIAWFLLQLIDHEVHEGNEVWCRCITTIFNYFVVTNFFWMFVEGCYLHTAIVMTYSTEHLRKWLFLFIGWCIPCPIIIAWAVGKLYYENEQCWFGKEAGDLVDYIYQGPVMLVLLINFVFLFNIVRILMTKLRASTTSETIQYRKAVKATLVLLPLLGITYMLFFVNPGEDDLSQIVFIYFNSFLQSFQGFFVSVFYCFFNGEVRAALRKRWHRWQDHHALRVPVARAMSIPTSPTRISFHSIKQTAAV

Corticotropin-releasing factor receptor 2, sequence (Q60748 whole entry): as above

| EC50 [1] [nM] | EC50 [2] [nM] | Emax [3] [%] | Selectivity (Mus musculus) | Emax [4] [%] | SMILES |
| --- | --- | --- | --- | --- | --- |
| 5.6 | 64.9 | 81 | 13 | 88 | CC[C@H](C)[C@H](NC(=O)[C@@H](NC(=O)[C@H](CC(=O)O)NC(=O)[C@H](CC(C)C)NC(=O)[C@H](CC(C)C)NC(=O)[C@H](CC(C)C)NC(=O)[C@H](CCCN=C(N)N)NC(=O)[C@H](CC(N)=O)NC(=O)[C@H](CC(N)=O)NC(=O)[C@H](C)NC(=O)[C@H](C)NC(=O)[C@H](CCC(N)=O)NC(=O)[C@H](CCC(N)=O)NC(=O)[C@H](CCCCN)NC(=O)[C@H](CCC(=O)O)NC(=O)[C@H](CCCCN)NC(=O)[C@H](CCC(=O)O)NC(=O)[C@H](CCC(N)=O)NC(=O)[C@H](CCCCN)NC(=O)[C@H](CCC(=O)O)NC(=O)[C@@H](NC(=O)[C@H](CCC(=O)O)NC(=O)[C@@H](NC(=O)[C@H](CCSC)NC(=O)[C@H](CCCCN)NC(=O)[C@H](CCCN=C(N)N)NC(=O)[C@H](CC(C)C)NC(=O)[C@H](CC(C)C)NC(=O)[C@H](Cc1c[nH]cn1)NC(=O)[C@H](Cc1ccc(O)cc1)NC(=O)[C@@H]1CCCN1C(=O)[C@H](CC(C)C)NC(=O)[C@H](CC(=O)O)NC(=O)[C@@H](NC(=O)[C@H](CO)NC(=O)[C@@H](NC(=O)[C@@H]1CCCN1C(=O)[C@@H]1CCCN1C(=O)CNC(=O)[C@@H]1CCC(=O)N1)[C@@H](C)CC)[C@@H](C)CC)[C@@H](C)CC)[C@@H](C)CC)[C@@H](C)O)C(=O)O |
| 1.9 | 52.2 | 96 | 28 | 81 | CC[C@H](C)[C@H](NC(=O)[C@@H](NC(=O)[C@H](CC(=O)O)NC(=O)[C@H](CC(C)C)NC(=O)[C@H](CC(C)C)NC(=O)[C@H](CC(C)C)NC(=O)[C@H](CCCN=C(N)N)NC(=O)[C@H](CC(N)=O)NC(=O)[C@H](CC(N)=O)NC(=O)[C@H](C)NC(=O)[C@H](C)NC(=O)[C@H](CCC(N)=O)NC(=O)[C@H](CCC(N)=O)NC(=O)[C@H](CCCCN)NC(=O)[C@H](CCC(=O)O)NC(=O)[C@H](CCCCN)NC(=O)[C@H](CCC(=O)O)NC(=O)[C@H](CCC(N)=O)NC(=O)[C@H](CCCCN)NC(=O)[C@H](CCC(=O)O)NC(=O)[C@@H](NC(=O)[C@H](CCC(=O)O)NC(=O)[C@@H](NC(=O)[C@H](CCSC)NC(=O)[C@H](CCCCN)NC(=O)[C@H](CCCN=C(N)N)NC(=O)[C@H](CC(C)C)NC(=O)[C@H](CC(C)C)NC(=O)[C@H](Cc1c[nH]cn1)NC(=O)[C@H](CC(C)C)NC(=O)[C@@H]1CCCN1C(=O)[C@H](CC(C)C)NC(=O)[C@H](CC(=O)O)NC(=O)[C@@H](NC(=O)[C@H](CO)NC(=O)[C@@H](NC(=O)[C@@H]1CCCN1C(=O)[C@@H]1CCCN1C(=O)CNC(=O)[C@@H]1CCC(=O)N1)[C@@H](C)CC)[C@@H](C)CC)[C@@H](C)CC)[C@@H](C)CC)[C@@H](C)O)C(=O)O |
| 23.4 | 562 | 99 | 24 | 94 | CC[C@H](C)[C@H](NC(=O)[C@@H](NC(=O)[C@H](CC(=O)O)NC(=O)[C@H](CC(C)C)NC(=O)[C@H](CC(C)C)NC(=O)[C@H](CC(C)C)NC(=O)[C@H](CCCN=C(N)N)NC(=O)[C@H](CC(N)=O)NC(=O)[C@H](CC(N)=O)NC(=O)[C@H](C)NC(=O)[C@H](C)NC(=O)[C@H](CCC(N)=O)NC(=O)[C@H](CCC(N)=O)NC(=O)[C@H](CCCCN)NC(=O)[C@H](CCC(=O)O)NC(=O)[C@H](CCCCN)NC(=O)[C@H](CCC(=O)O)NC(=O)[C@H](CCC(N)=O)NC(=O)[C@H](CCCCN)NC(=O)[C@H](CCC(=O)O)NC(=O)[C@@H](NC(=O)[C@H](CCC(=O)O)NC(=O)[C@@H](NC(=O)[C@H](CCSC)NC(=O)[C@H](CCCCN)NC(=O)[C@H](CCCN=C(N)N)NC(=O)[C@H](CC(C)C)NC(=O)[C@H](CC(C)C)NC(=O)[C@H](Cc1c[nH]c2ccccc12)NC(=O)[C@@H](NC(=O)[C@@H]1CCCN1C(=O)[C@H](CC(C)C)NC(=O)[C@H](CC(=O)O)NC(=O)[C@@H](NC(=O)[C@H](CO)NC(=O)[C@@H](NC(=O)[C@@H]1CCCN1C(=O)[C@@H]1CCCN1C(=O)CNC(=O)[C@@H]1CCC(=O)N1)[C@@H](C)CC)[C@@H](C)CC)[C@@H](C)CC)[C@@H](C)CC)[C@@H](C)CC)[C@@H](C)O)C(=O)O |

The next lines start with the compound.

| SMILES | EC50 [1] [nM] | EC50 [2] [nM] | Emax [3] [%] | Selectivity (Mus musculus) | Emax [4] [%] |
| --- | --- | --- | --- | --- | --- |
| CC[C@H](C)[C@H](NC(=O)[C@@H](NC(=O)[C@H](CC(=O)O)NC(=O)[C@H](CC(C)C)NC(=O)[C@H](CC(C)C)NC(=O)[C@H](CC(C)C)NC(=O)[C@H](CCCN=C(N)N)NC(=O)[C@H](CC(N)=O)NC(=O)[C@H](CC(N)=O)NC(=O)[C@H](C)NC(=O)[C@H](C)NC(=O)[C@H](CCC(N)=O)NC(=O)[C@H](CCC(N)=O)NC(=O)[C@H](CCCCN)NC(=O)[C@H](CCC(=O)O)NC(=O)[C@H](CCCCN)NC(=O)[C@H](CCC(=O)O)NC(=O)[C@H](CCC(N)=O)NC(=O)[C@H](CCCCN)NC(=O)[C@H](CCC(=O)O)NC(=O)[C@@H](NC(=O)[C@H](CCC(=O)O)NC(=O)[C@@H](NC(=O)[C@H](CCSC)NC(=O)[C@H](CCCCN)NC(=O)[C@H](CCCN=C(N)N)NC(=O)[C@H](CC(C)C)NC(=O)[C@H](CC(C)C)NC(=O)[C@H](CCC(N)=O)NC(=O)[C@@H](NC(=O)[C@@H]1CCCN1C(=O)[C@H](CC(C)C)NC(=O)[C@H](CC(=O)O)NC(=O)[C@@H](NC(=O)[C@H](CO)NC(=O)[C@@H](NC(=O)[C@@H]1CCCN1C(=O)[C@@H]1CCCN1C(=O)CNC(=O)[C@@H]1CCC(=O)N1)[C@@H](C)CC)[C@@H](C)CC)[C@@H](C)CC)[C@@H](C)CC)[C@@H](C)CC)[C@@H](C)O)C(=O)O | 24.6 | > 1000 | 6 | > 41 | 78 |
| CC[C@H](C)[C@H](NC(=O)[C@@H](NC(=O)[C@H](CC(=O)O)NC(=O)[C@H](CC(C)C)NC(=O)[C@H](CC(C)C)NC(=O)[C@H](CC(C)C)NC(=O)[C@H](CCCN=C(N)N)NC(=O)[C@H](CC(N)=O)NC(=O)[C@H](CC(N)=O)NC(=O)[C@H](C)NC(=O)[C@H](C)NC(=O)[C@H](CCC(N)=O)NC(=O)[C@H](CCC(N)=O)NC(=O)[C@H](CCCCN)NC(=O)[C@H](CCC(=O)O)NC(=O)[C@H](CCCCN)NC(=O)[C@H](CCC(=O)O)NC(=O)[C@H](CCC(N)=O)NC(=O)[C@H](CCCCN)NC(=O)[C@H](CCC(=O)O)NC(=O)[C@@H](NC(=O)[C@H](CCC(=O)O)NC(=O)[C@@H](NC(=O)[C@H](CCSC)NC(=O)[C@H](CCCCN)NC(=O)[C@H](CCCN=C(N)N)NC(=O)[C@H](CC(C)C)NC(=O)[C@H](CC(C)C)NC(=O)[C@@H](NC(=O)[C@@H](NC(=O)[C@@H]1CCCN1C(=O)[C@H](CC(C)C)NC(=O)[C@H](CC(=O)O)NC(=O)[C@@H](NC(=O)[C@H](CO)NC(=O)[C@@H](NC(=O)[C@@H]1CCCN1C(=O)[C@@H]1CCCN1C(=O)CNC(=O)[C@@H]1CCC(=O)N1)[C@@H](C)CC)[C@@H](C)CC)[C@@H](C)O)[C@@H](C)CC)[C@@H](C)CC)[C@@H](C)CC)[C@@H](C)O)C(=O)O | 19.1 | > 1000 | 42 | > 52 | 94 |
